From article PMC12668308, “A Novel Antimalarial Agent that Inhibits Protein Synthesis in Plasmodium falciparum” (Angewandte Chemie (International Ed. in English), 2025) come the findings set out here.

Read-outs that look alike come from different tables or passages of the source.

For data set [1], the system named is Dd2b2^pfmdr1 G182S. The format is cell-based, Plasmodium falciparum. Particulars: Dd2b2^pfmdr1 G182S vs Dd2b2^WT. As to the method: (§1) ^[a] 72-h [^3H] hypoxanthhine incorporation assay; Data is expressed as mean±s.d. The assay was performed in three independent biological experiments, each in biological duplicates
(§2) P. falciparum asexual blood stage parasites were cultured in human red blood cells (RBC, Blutspende SRK, Zurich) at a hematocrit of 5% in RPMI 1640 medium. The RPMI 1640 medium (ThermoFisher Scientific #51800−043) was supplemented with the following: 24 mM NaHCO3 (pH 7.3, Sigma-Aldrich #31437−500G-R), 25 mM Hepes (Sigma-Aldrich #H4034−500G), 0.36 mM hypoxanthine (Sigma-Aldrich # H9377−25G), 100 µg mL^-1 neomycin (Sigma-Aldrich #N6386−100G) and 0.5% Albumax II (Thermo Fisher #11021−045). Additionally, 2 mM choline chloride (279 mg/L, Sigma-Aldrich #C7527−100G) was added to the culture to block the induction of sexual commitment as described. ^[31^] The RPMI 1640 medium and components were dissolved in water (Milli-Q purified), stirred for at least 3 h, and then sterile filtered (0.22 μm pore size) with a bottle top filter (Corning # 431118). Parasite cultures were maintained in an atmosphere of 3% O2, 4% CO2, and 93% N2 in air-tight chambers at 37 °C. The [^3H]-hypoxanthine incorporation assay was used to test compound activity in the specific parasite lines as described.^[32^] Briefly, compounds were dissolved in DMSO (10 mM) and diluted in a hypoxanthine-free culture medium. A limiting dilution was performed over a 64-fold range (6-step twofold dilution) in a 96-well plate in duplicates. For every starting concentration, a limiting dilution was performed over a 64-fold range (6-step twofold dilution) in a 96-well plate in two biological duplicates. Parasites were added at 100 µL to each well containing the compound to obtain a final parasitemia of 0.3% and haematocrit of 1.25%. The plates were incubated for 48 h before 0.25 µCi of [^3H]-hypoxanthine was added per well for an additional 24 h. Parasites were harvested on a glass-fiber filter with a Microbeta FilterMate cell harvester (Perkin Elmer, Waltham, USA) and radioactivity was counted using a MicroBeta2 liquid scintillation counter (Perkin Elmer, Waltham, US). […] The fifty percent inhibitory concentration (IC50) was calculated by using nonlinear, four parameter (variable slope) curve fitting as described ^[33^] after importing into GraphPad Prism (version 8.3.0).

Data set [2] relates to Dd2b2^WT. Put plainly: [3H]-hypoxanthine incorporation assay. Particulars: Plasmodium falciparum, 72 h, read-out: Parent (Dd2b2^WT) IC50. The format is cell-based, Plasmodium falciparum. As to the method:
as §2
31 was used for resistance selection studies using the strain Dd2b2 (kindly provided by David Fidock). Resistance selection was done as described in ^[34^]. As summarized in Table S3, an initial inoculum of 2 x 10^9 asexual blood stage parasites (at 2-2.5% parasitemia) were cultured in three independent flasks. […] Cloning via limiting dilution was performed to obtain resistant clones for further characterization as described in section 2.2.5.

For data set [3], the system named is 3D7^Cas9 pfmdr1 G182S. The format is cell-based, Plasmodium falciparum. Particulars: 3D7^Cas9 pfmdr1 G182S vs 3D7^WT. As to the method:
(§3) ^[a] 72-h [^3H] hypoxanthhine incorporation assay; Data is expressed as mean±s.d.. The assay was performed in three independent biological experiments, each in biological duplicates.
(§4) P. falciparum asexual blood stage parasites were cultured in human red blood cells (RBC, Blutspende SRK, Zurich) at a hematocrit of 5% in RPMI 1640 medium. The RPMI 1640 medium (ThermoFisher Scientific #51800−043) was supplemented with the following: 24 mM NaHCO3 (pH 7.3, Sigma-Aldrich #31437−500G-R), 25 mM Hepes (Sigma-Aldrich #H4034−500G), 0.36 mM hypoxanthine (Sigma-Aldrich # H9377−25G), 100 µg mL^-1 neomycin (Sigma-Aldrich #N6386−100G) and 0.5% Albumax II (Thermo Fisher #11021−045). Additionally, 2 mM choline chloride (279 mg/L, Sigma-Aldrich #C7527−100G) was added to the culture to block the induction of sexual commitment as described. ^[31^] The RPMI 1640 medium and components were dissolved in water (Milli-Q purified), stirred for at least 3 h, and then sterile filtered (0.22 μm pore size) with a bottle top filter (Corning # 431118). Parasite cultures were maintained in an atmosphere of 3% O2, 4% CO2, and 93% N2 in air-tight chambers at 37 °C. The [^3H]-hypoxanthine incorporation assay was used to test compound activity in the specific parasite lines as described.^[32^] Briefly, compounds were dissolved in DMSO (10 mM) and diluted in a hypoxanthine-free culture medium. A limiting dilution was performed over a 64-fold range (6-step twofold dilution) in a 96-well plate in duplicates. For every starting concentration, a limiting dilution was performed over a 64-fold range (6-step twofold dilution) in a 96-well plate in two biological duplicates. Parasites were added at 100 µL to each well containing the compound to obtain a final parasitemia of 0.3% and haematocrit of 1.25%. The plates were incubated for 48 h before 0.25 µCi of [^3H]-hypoxanthine was added per well for an additional 24 h. Parasites were harvested on a glass-fiber filter with a Microbeta FilterMate cell harvester (Perkin Elmer, Waltham, USA) and radioactivity was counted using a MicroBeta2 liquid scintillation counter (Perkin Elmer, Waltham, US). The results were recorded, processed by subtraction of the mean background signal obtained from the uninfected RBC controls and expressed as percentage of untreated controls. The fifty percent inhibitory concentration (IC50) was calculated by using nonlinear, four parameter (variable slope) curve fitting as described ^[33^] after importing into GraphPad Prism (version 8.3.0).
The P. falciparum 3D7 wild type parasites in the ring stage were transfected as described.^[20] Infected RBCs collected from a 5 ml culture of synchronous ring stage parasites (5-6% parasitemia at ) were added to 250 µl of packed RBCs and were co-transfected with 50µg of Cas9 and 50 µg of donor plasmids using a Bio-Rad Gene Pulser Xcell Electroporation System (single exponential pulse, 310 V, 250 µF). 24 hours post-transfection, 5 nM WR99210 (MedChemExpress #HY-116387) was added to the culture medium for six days to select for gene-edited parasites, and henceforth parasites were maintained in normal culture medium until a stably propagating parasite population was obtained. After ~4 weeks post-transfection, stably propagating parasite population were obtained. The transgenic parasite line (3D7^pfmdr1 G182S) was cloned out using an established plaque assays via limiting dilution.^[35^] […]

The test system of data set [4] is 3D7^WT. Put plainly: [3H]-hypoxanthine incorporation assay. It is filed as cell-based. Particulars: Plasmodium falciparum, read-out: 3D7^WT IC50. As to the method: as §3, §4
Data set [5] concerns Dd2b2^pfmdr1 K1065N. It is filed as cell-based, Plasmodium falciparum. Particulars: Dd2b2^pfmdr1 K1065N vs Dd2b2^WT. As to the method:
as §1, §4

Data set [6] concerns P. falciparum NF54 strain. Put plainly: [3H]-hypoxanthine incorporation assay, asexual blood stage. It is filed as cell-based, Plasmodium falciparum. Particulars: Plasmodium falciparum, NF54, asexual blood stage; mean ± s.d.; read-out: PfNF54 IC50 ± s.d. As to the method:
as §2

Data set [7] in a line: Metabolic stability in liver S9 fractions. The format is in vitro ADME. Particulars: pooled mouse liver S9 fraction; 1 μM compound, 1 mg/mL pooled mouse liver S9, 37 °C; read-out: t1/2 Mouse Liver S9. As to the method:
To evaluate phase I and phase II metabolic stability, the compound (1 μM) was incubated at 37 °C for 240 min with 1 mg/mL pooled mouse liver S9 fraction (Xenotech, Kansas City, USA), 2 mM NADPH, 1 mM UDPGA, 10 mM MgCl2, 5 mM GSH and 0.1 mM PAPS. Metabolic stability of reference compounds: testosterone, verapamil and ketoconazole was determined in parallel to confirm the enzymatic activity of mouse S9 fractions. At defined time points, the incubation was stopped by precipitation of aliquots of S9 enzymes with 2 volumes of cold acetonitrile containing internal standard (150 nM diphenhydramine or 15 nM for Altis Plus measurements). Samples were kept on ice until the end of the incubation, after which precipitated protein was removed by centrifugation (15 min, 4 °C, 4,000 g).

The subject of data set [8] is HepG2. Nature of the data set: Cytotoxicity assay (MTT). The format is cell-based, human. Particulars: Homo sapiens, HepG2; 100 µM, 48 h, MTT. As to the method:
HepG2 (2x10^4 cells per well) were seeded in 96-well flat-bottom culture plates in 100 µL of culture medium (DMEM containing 10% fetal calve serum and 1% penicillin-streptomycin). After 24 hours, the medium was replaced by fresh medium containing test compounds in a final DMSO concentration of 1%. […] Epirubicin and doxorubicin were used as positive controls in serial dilutions starting from 10 µM, and rifampicin was used as a negative control (at 100 µM). Cell viability was determined 48 h after treatment with compounds by adding 0.1 volumes of 3-(4,5-dimethylthiazol-2-yl)-2,5-diphenyltetrazolium bromide (MTT) solution (5 mg/mL sterile PBS) (Sigma, St. Louis, MO) to the wells. After incubating the cells for 30 min at 37 °C (atmosphere containing 5% CO2), medium was removed and MTT crystals were dissolved in 75 µL of a solution containing 10% SDS and 0.5% acetic acid in DMSO. The optical density (OD) of the samples was measured photometrically at 570 nm in a PHERAstar Omega plate reader (BMG labtech, Ortenberg, Germany). Percent viability was calculated by normalizing sample ODs to those of the DMSO controls. Each compound was tested in at least two independent experiments and CC50 values were determined using the nonlinear regression function of GraphPad Prism 10 (GraphPad Software, San Diego, CA, USA).

As for `CCN(CC)Cc1cc(Nc2ccnc3cc(Cl)ccc23)ccc1O` [Amodiaquine, amodiaquine, reference compound], the figures for the “IC50 fold shift relative to parental clone” value in data set [1] and in data set [5] were 1.1 and 1.2, respectively. Further, the IC50 (usually the concentration needed to halve the response being measured) is 0.8 ± 0.2 nM in data set [2] and 0.8 ± 0.2 nM in data set [4] (3D7, 72-h assay, mean±s.d.). In addition, in data set [3], the “IC50 fold shift relative to 3D7^WT strain” value was 1.2.
Turning to `CCN(CC)CCCC(C)Nc1ccnc2cc(Cl)ccc12` (stereo not shown) [Chloroquine, chloroquine, reference compound], the IC50 in data set [2] was 22.3 ± 1.3 nM; in data set [4] (3D7, 72 h), 1.9 ± 0.1 nM.
Consider `CC(C)(C)c1ccc(O)c(NC(=O)c2cccc(Oc3cc(C(F)(F)F)ccn3)c2)c1` [Compound 24, N-(5-(tert-Butyl)-2-hydroxyphenyl)-3-((4-(trifluoromethyl)pyridin-2-yl)oxy)benzamide], for which the IC50 in data set [6] is 17 ± 3 nM. Moreover, the half-life at 1 µM in data set [7] was 5.4 ± 0.5 min.
With `CCN(CC)Cc1ccc(O)c(NC(=O)c2cccc(Oc3cc(C(F)(F)F)ccn3)c2)c1` [Compound 27, N-(5-((diEthylamino)methyl)-2-hydroxyphenyl)-3-((4-(trifluoromethyl)pyridin-2-yl)oxy)benzamide], the “IC50 fold shift relative to parental clone” value turned out to be 10.6 in data set [1] and 9.4 in data set [5]. Moreover, the IC50 is 11 ± 3.4 nM in data set [6]; 3.5 ± 0.7 nM in data set [2]; 2.2 ± 0.2 nM in data set [4] (3D7, 72-h assay, mean±s.d.). In data set [3], the “IC50 fold shift relative to 3D7^WT strain” value is 1.5.
As to `O=C(Nc1cc(CN2CCOCC2)ccc1O)c1cccc(Oc2cc(C(F)(F)F)ccn2)c1` [Compound 30, N-(2-Hydroxy-5-(morpholinomethyl)phenyl)-3-((4-(trifluoromethyl)pyridin-2-yl)oxy)benzamide], the inhibition – broadly, the drop in the measured response relative to a control, in per cent – at 100 µM in data set [8] is 45 ± 21%. Further, the IC50 in data set [6] turned out to be 10 ± 1.8 nM; in data set [2] it was 5.2 ± 0.3 nM; in data set [4] (3D7, 72-h assay, mean±s.d.), 2.6 ± 0.5 nM. The half-life at 1 µM in data set [7] was 28.1 ± 5.5 min. The “IC50 fold shift relative to parental clone” value in data set [5] is 11.8.
For `O=C(Nc1cc(CN2CCOCC2)cc(F)c1O)c1cccc(Oc2cc(C(F)(F)F)ccn2)c1` [Compound 32, N-(3-Fluoro-2-hydroxy-5-(morpholinomethyl)phenyl)-3-((4-(trifluoromethyl)pyridin-2-yl)oxy)benzamide], at 100 µM the inhibition in data set [8] was 51 ± 1%. For the same molecule, the half-inhibitory concentration (IC50) in data set [6] is 21.6 ± 2.65 nM. Also, the half-life at 1 µM in data set [7] was determined as 18.4 ± 4.2 min.
For `O=C(Nc1cc(CN2CCOCC2)cc(Cl)c1O)c1cccc(Oc2cc(C(F)(F)F)ccn2)c1` [Compound 33, N-(3-Chloro-2-hydroxy-5-(morpholinomethyl)phenyl)-3-((4-(trifluoromethyl)pyridin-2-yl)oxy)benzamide] the same measures were 66 ± 2%, 63 ± 7.4 nM and 49.9 ± 4 min.
Take `CCCCN(CCCC)CC(O)c1cc(Cl)cc2c1-c1ccc(Cl)cc1/C2=C/c1ccc(Cl)cc1` (stereo not shown) [Lumefantrine, lumefantrine, reference compound]: the “IC50 fold shift relative to parental clone” value in data set [1] was found to be 0.4; in data set [5], 0.8. The IC50 in data set [2] stood at 1.6 ± 0.8 nM; in data set [4] (3D7, 72-h assay, mean±s.d.), 1.6 ± 0.8 nM. The “IC50 fold shift relative to 3D7^WT strain” value in data set [3] is 0.8.
With `OC(c1cc(C(F)(F)F)nc2c(C(F)(F)F)cccc12)C1CCCCN1` (stereo not shown) [Mefloquine, mefloquine, reference compound], the “IC50 fold shift relative to parental clone” value in data set [1] is 0.3; in data set [5] it was 0.8. In addition, the IC50 in data set [2] was found to be 1.1 ± 0.2 nM; in data set [4] (3D7, 72-h assay, mean±s.d.) it was 1.4 ± 0.5 nM. In data set [3], the “IC50 fold shift relative to 3D7^WT strain” value came to 1.3.
